# Molecular target: T1, human complement factor D (Homo sapiens, UniProt P00746)
# T1 construct: purchased R&D Systems 1824-SE
# Assay: In vitro enzyme inhibition of human complement factor D (Z-Lys-SBzl/DTNB, A405)
# Type: biochemical
# Conditions: not given
# In short: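 Buffer 50 mM Tris/HCl pH 7.5, 1 M NaCl, 0.5% final DMSO; compounds pre-incubated with enzyme 5 min at room temperature, then Z-Lys-SBzl with DTNB added (each diluted to 200 μM before addition).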
# T1 sequence (P00746 26-253): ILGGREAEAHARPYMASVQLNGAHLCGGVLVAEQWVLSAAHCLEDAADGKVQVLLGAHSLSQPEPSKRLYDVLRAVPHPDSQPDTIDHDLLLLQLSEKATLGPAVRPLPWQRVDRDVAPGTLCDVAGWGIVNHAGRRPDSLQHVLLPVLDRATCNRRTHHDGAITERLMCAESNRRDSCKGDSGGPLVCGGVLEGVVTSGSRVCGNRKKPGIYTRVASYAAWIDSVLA
row,SMILES,IC50 [µM]
1,"NC(=O)c1nn(CC(=O)N(CC(=O)NCc2c(F)ccc(Cl)c2F)C2CC2)c2ccccc12 [Example 82, 1-(2-((2-((3-chloro-2,6-difluorobenzyl)amino)-2-oxoethyl)(cyclopropyl)amino)-2-oxoethyl)-1H-indazole-3-carboxamide]",0.1 to 1

# Same assay, conditions: biochemical assay, substrate Z-Lys-SBzl; read-out: CFD IC50
row,SMILES,IC50 [µM]
1,"CCOC(=O)CC(N(CC(=O)NCc1cccc(Cl)c1F)C(=O)Cn1nc(C(N)=O)c2ccccc21)C(F)(F)F (stereo not shown) [Example 77, ethyl 3-(2-(3-carbamoyl-1H-indazol-1-yl)-N-(2-((3-chloro-2-fluorobenzyl)amino)-2-oxoethyl)acetamido)-4,4,4-trifluorobutanoate]",1 to 10
2,"CC(CF)N(CC(=O)NCc1cccc(Cl)c1F)C(=O)Cn1nc(C(N)=O)c2ccccc21 (stereo not shown) [Example 66, 1-(2-((2-((3-chloro-2-fluorobenzyl)amino)-2-oxoethyl)(1-fluoropropan-2-yl)amino)-2-oxoethyl)-1H-indazole-3-carboxamide]",0.1 to 1
3,"NC(=O)c1ccc2c(c1)c(C(N)=O)nn2CC(=O)N(CC(=O)NCc1cccc(Cl)c1F)C1CC1 [Example 93, 1-(2-((2-((3-chloro-2-fluorobenzyl)amino)-2-oxoethyl)(cyclopropyl)amino)-2-oxoethyl)-1H-indazole-3,5-dicarboxamide]",0.1 to 1
4,"NC(=O)c1nn(CC(=O)N(CC(=O)NCc2cccc(Cl)c2F)C2CC2)c2c(F)cccc12 [Example 88, 1-(2-((2-((3-chloro-2-fluorobenzyl)amino)-2-oxoethyl)(cyclopropyl)amino)-2-oxoethyl)-7-fluoro-1H-indazole-3-carboxamide]",0.1 to 1
5,"CCOC(=O)CC(C)N(CC(=O)NCc1cccc(Cl)c1F)C(=O)Cn1nc(C(N)=O)c2ccccc21 (stereo not shown) [Example 72, ethyl 3-(2-(3-carbamoyl-1H-indazol-1-yl)-N-(2-((3-chloro-2-fluorobenzyl)amino)-2-oxoethyl)acetamido)butanoate]",0.1 to 1
6,"NC(=O)c1nn(CC(=O)N(CC(=O)NCc2cccc(Cl)c2F)Cc2cccnc2)c2ccccc12 [Example 35, 1-(2-((2-((3-chloro-2-fluorobenzyl)amino)-2-oxoethyl)(pyridin-3-ylmethyl)amino)-2-oxoethyl)-1H-indazole-3-carboxamide]",1 to 10

# Next, values leading:
row,IC50 [µM],SMILES
1,0.1 to 1,"NC(=O)c1nn(CC(=O)N(CC(=O)NCc2cc(Cl)cc3ccoc23)C2CC2)c2ccccc12 [Example 110, 1-(2-((2-(((5-chlorobenzofuran-7-yl)methyl)amino)-2-oxoethyl)(cyclopropyl)amino)-2-oxoethyl)-1H-indazole-3-carboxamide]"
2,0.1 to 1,"N#Cc1ccc(Cl)c(F)c1CNC(=O)CN(C(=O)Cn1nc(C(N)=O)c2ccccc21)C1CC1 [Example 87, 1-(2-((2-((3-chloro-6-cyano-2-fluorobenzyl)amino)-2-oxoethyl)(cyclopropyl)amino)-2-oxoethyl)-1H-indazole-3-carboxamide]"
3,1 to 10,"NC(=O)n1nc(CC(=O)N(CC(=O)Nc2cccc(Cl)n2)C2CCOCC2)c2ccccc21 [Example 21, 3-(2-((2-((6-chloropyridin-2-yl)amino)-2-oxoethyl)(tetrahydro-2H-pyran-4-yl)amino)-2-oxoethyl)-1H-indazole-1-carboxamide]"
4,1 to 10,"NC(=O)c1nn(CC(=O)N(CC(=O)NCc2cccc(C3CC3)c2F)C2CC2)c2ccccc12 [Example 127, 1-(2-(cyclopropyl(2-((3-cyclopropyl-2-fluorobenzyl)amino)-2-oxoethyl)amino)-2-oxoethyl)-1H-indazole-3-carboxamide]"
5,1 to 10,"NC(=O)c1nn(CC(=O)N(CC(=O)Nc2cccc(Cl)n2)C2CCNC2)c2ccccc12 (stereo not shown) [Example 26, 1-(2-((2-((6-chloropyridin-2-yl)amino)-2-oxoethyl)(pyrrolidin-3-yl)amino)-2-oxoethyl)-1H-indazole-3-carboxamide]"
6,1 to 10,"CC(=O)NCCN(CC(=O)Nc1cccc(Cl)n1)C(=O)Cn1nc(C(N)=O)c2ccccc21 [Example 24, 1-(2-((2-acetamidoethyl)(2-((6-chloropyridin-2-yl)amino)-2-oxoethyl)amino)-2-oxoethyl)-1H-indazole-3-carboxamide]"
